Experiments:
Assay type in all cases: functional
SF-539 = experiment: Antiproliferative activity against human SF539 cells assessed as cell viability at 10^-5 M incubated for 48 hrs by sulforhodamine B assay relative to control; details: SF-539, 48 h, read-out: Activity
SR = experiment: Antiproliferative activity against human SR cells assessed as cell viability at 10^-5 M incubated for 48 hrs by sulforhodamine B assay relative to control; details: read-out: Activity
HCT-116 = experiment: Antiproliferative activity against human HCT116 cells assessed as cell viability at 10^-5 M incubated for 48 hrs by sulforhodamine B assay relative to control; details: HCT-116, 48 h, read-out: Activity
SNB-19 = experiment: Antiproliferative activity against human SNB19 cells assessed as cell viability at 10^-5 M incubated for 48 hrs by sulforhodamine B assay relative to control; details: SNB-19, 48 h, read-out: Activity
CCRF-CEM = experiment: Antiproliferative activity against human CCRF-CEM cells assessed as cell viability at 10^-5 M incubated for 48 hrs by sulforhodamine B assay relative to control; details: read-out: Activity
NCI-H226 = experiment: Antiproliferative activity against human NCI-H226 cells assessed as cell viability at 10^-5 M incubated for 48 hrs by sulforhodamine B assay relative to control; details: NCI-H226, 48 h, read-out: Activity
Malme-3M = experiment: Antiproliferative activity against human MALME-3M cells assessed as cell viability at 10^-5 M incubated for 48 hrs by sulforhodamine B assay relative to control; details: read-out: Activity
A498 = experiment: Antiproliferative activity against human A498 cells assessed as cell viability at 10^-5 M incubated for 48 hrs by sulforhodamine B assay relative to control; details: A498, 48 h, read-out: Activity
NCI-H460 = experiment: Antiproliferative activity against human NCI-H460 cells assessed as cell viability at 10^-5 M incubated for 48 hrs by sulforhodamine B assay relative to control; details: NCI-H460, 48 h, read-out: Activity
T47D = experiment: Antiproliferative activity against human T47D cells assessed as cell viability at 10^-5 M incubated for 48 hrs by sulforhodamine B assay relative to control; details: read-out: Activity
TK-10 = experiment: Antiproliferative activity against human TK10 cells assessed as cell viability at 10^-5 M incubated for 48 hrs by sulforhodamine B assay relative to control; details: TK-10, 48 h, read-out: Activity
UO-31 = experiment: Antiproliferative activity against human UO31 cells assessed as cell viability at 10^-5 M incubated for 48 hrs by sulforhodamine B assay relative to control; details: UO-31, 48 h, read-out: Activity
SK-OV-3 = experiment: Antiproliferative activity against human SKOV3 cells assessed as cell viability at 10^-5 M incubated for 48 hrs by sulforhodamine B assay relative to control; details: SK-OV-3, 48 h, read-out: Activity
RXF 393 = experiment: Antiproliferative activity against human RXF393 cells assessed as cell viability at 10^-5 M incubated for 48 hrs by sulforhodamine B assay relative to control; details: RXF 393, 48 h, read-out: Activity
MOLT-4 = experiment: Antiproliferative activity against human MOLT4 cells assessed as cell viability at 10^-5 M incubated for 48 hrs by sulforhodamine B assay relative to control; details: MOLT-4, 48 h, read-out: Activity
PC-3 = experiment: Antiproliferative activity against human PC3 cells assessed as cell viability at 10^-5 M incubated for 48 hrs by sulforhodamine B assay relative to control; details: PC-3, 48 h, read-out: Activity
NCI/ADR-RES = experiment: Antiproliferative activity against human NCI-ADR-RES cells assessed as cell viability at 10^-5 M incubated for 48 hrs by sulforhodamine B assay relative to control; details: read-out: Activity
NCI-H23 = experiment: Antiproliferative activity against human NCI-H23 cells assessed as cell viability at 10^-5 M incubated for 48 hrs by sulforhodamine B assay relative to control; details: NCI-H23, 48 h, read-out: Activity
UACC-62 = experiment: Antiproliferative activity against human UACC62 cells assessed as cell viability at 10^-5 M incubated for 48 hrs by sulforhodamine B assay relative to control; details: UACC-62, 48 h, read-out: Activity
OVCAR-8 = experiment: Antiproliferative activity against human OVCAR8 cells assessed as cell viability at 10^-5 M incubated for 48 hrs by sulforhodamine B assay relative to control; details: OVCAR-8, 48 h, read-out: Activity
NCI-H522 = experiment: Antiproliferative activity against human NCI-H522 cells assessed as cell viability at 10^-5 M incubated for 48 hrs by sulforhodamine B assay relative to control; details: NCI-H522, 48 h, read-out: Activity
EKVX = experiment: Antiproliferative activity against human EKVX cells assessed as cell viability at 10^-5 M incubated for 48 hrs by sulforhodamine B assay relative to control; details: read-out: Activity
786-0 = experiment: Antiproliferative activity against human 786-0 cells assessed as cell viability at 10^-5 M incubated for 48 hrs by sulforhodamine B assay relative to control; details: 786-0, 48 h, read-out: Activity
SF-295 = experiment: Antiproliferative activity against human SF295 cells assessed as cell viability at 10^-5 M incubated for 48 hrs by sulforhodamine B assay relative to control; details: SF-295, 48 h, read-out: Activity
OVCAR-5 = experiment: Antiproliferative activity against human OVCAR5 cells assessed as cell viability at 10^-5 M incubated for 48 hrs by sulforhodamine B assay relative to control; details: OVCAR-5, 48 h, read-out: Activity
ACHN = experiment: Antiproliferative activity against human ACHN cells assessed as cell viability at 10^-5 M incubated for 48 hrs by sulforhodamine B assay relative to control; details: read-out: Activity
Hs-578T = experiment: Antiproliferative activity against human Hs 578T cells assessed as cell viability at 10^-5 M incubated for 48 hrs by sulforhodamine B assay relative to control; details: read-out: Activity
SK-MEL-2 = experiment: Antiproliferative activity against human SK-MEL-2 cells assessed as cell viability at 10^-5 M incubated for 48 hrs by sulforhodamine B assay relative to control; details: SK-MEL-2, 48 h, read-out: Activity
SW-620 = experiment: Antiproliferative activity against human SW620 cells assessed as cell viability at 10^-5 M incubated for 48 hrs by sulforhodamine B assay relative to control; details: SW-620, 48 h, read-out: Activity
K562 = experiment: Antiproliferative activity against human K562 cells assessed as cell viability at 10^-5 M incubated for 48 hrs by sulforhodamine B assay relative to control; details: K562, 48 h, read-out: Activity
SN12C = experiment: Antiproliferative activity against human SN12C cells assessed as cell viability at 10^-5 M incubated for 48 hrs by sulforhodamine B assay relative to control; details: read-out: Activity
NCI-H322M = experiment: Antiproliferative activity against human NCI-H322M cells assessed as cell viability at 10^-5 M incubated for 48 hrs by sulforhodamine B assay relative to control; details: read-out: Activity
UACC-257 = experiment: Antiproliferative activity against human UACC257 cells assessed as cell viability at 10^-5 M incubated for 48 hrs by sulforhodamine B assay relative to control; details: UACC-257, 48 h, read-out: Activity

Compound | viability at 10 µM (SF-539) [%] | viability at 10 µM (SR) [%] | viability at 10 µM (HCT-116) [%] | viability at 10 µM (SNB-19) [%] | viability at 10 µM (CCRF-CEM) [%] | viability at 10 µM (NCI-H226) [%] | viability at 10 µM (Malme-3M) [%] | viability at 10 µM (A498) [%] | viability at 10 µM (NCI-H460) [%] | viability at 10 µM (T47D) [%] | viability at 10 µM (TK-10) [%] | viability at 10 µM (UO-31) [%] | viability at 10 µM (SK-OV-3) [%] | viability at 10 µM (RXF 393) [%] | viability at 10 µM (MOLT-4) [%] | viability at 10 µM (PC-3) [%] | viability at 10 µM (NCI/ADR-RES) [%] | viability at 10 µM (NCI-H23) [%] | viability at 10 µM (UACC-62) [%] | viability at 10 µM (OVCAR-8) [%] | further results
COc1cc2c(c(OC)c1OC)C(=O)NC1C2CC(O)C(O)C1O (racemic) | 100 | 95.6 | 98.9 | 99 | 104 | 102 | 108 | 112 | 110 | 100 | 98.5 | 87.1 | 99.9 | 102 | 104 | 96.5 | 108 | 106 | 94.1 | 97.3 | viability at 10 µM (NCI-H522): 97.7%; viability at 10 µM (EKVX): 103%; viability at 10 µM (786-0): 94.9%; viability at 10 µM (SF-295): 98.3%; viability at 10 µM (OVCAR-5): 106%; viability at 10 µM (ACHN): 99.7%; viability at 10 µM (Hs-578T): 108%; viability at 10 µM (SK-MEL-2): 117%; viability at 10 µM (SW-620): 109%; viability at 10 µM (K562): 96.6%; viability at 10 µM (SN12C): 104%; viability at 10 µM (NCI-H322M): 104%; viability at 10 µM (UACC-257): 100%
CCOc1c(OC)cc2c(c1OCC)C(=O)NC1C2CC(O)C(O)C1O (racemic) | 106 | 90.3 | 100 | 103 | 102 | 97.4 | 103 | 110 | 107 | 106 | 97.1 | 81.8 | 105 | 104 | 80.9 | 93.3 | 109 | 99.9 | 95.7 | 97.1 | viability at 10 µM (NCI-H522): 88.9%; viability at 10 µM (EKVX): 97.5%; viability at 10 µM (786-0): 103%; viability at 10 µM (SF-295): 98.7%; viability at 10 µM (OVCAR-5): 108%; viability at 10 µM (ACHN): 104%; viability at 10 µM (Hs-578T): 99.3%; viability at 10 µM (SK-MEL-2): 103%; viability at 10 µM (SW-620): 106%; viability at 10 µM (K562): 91.8%; viability at 10 µM (SN12C): 101%; viability at 10 µM (NCI-H322M): 98.6%; viability at 10 µM (UACC-257): 103%
CCOc1cc2c(c(O)c1OCC)C(=O)NC1C2CC(O)C(O)C1O (racemic) | 102 | 91.7 | 104 | 96 | 103 | 105 | 102 | 98.7 | 113 | 90.4 | 99.1 | 89.4 | 98.6 | 104 | 103 | 100 | 107 | 102 | 93 | 97 | viability at 10 µM (NCI-H522): 92.6%; viability at 10 µM (EKVX): 99.7%; viability at 10 µM (786-0): 94.1%; viability at 10 µM (SF-295): 98.7%; viability at 10 µM (OVCAR-5): 104%; viability at 10 µM (ACHN): 106%; viability at 10 µM (Hs-578T): 89.9%; viability at 10 µM (SK-MEL-2): 109%; viability at 10 µM (SW-620): 112%; viability at 10 µM (K562): 93.8%; viability at 10 µM (SN12C): 103%; viability at 10 µM (NCI-H322M): 97.6%; viability at 10 µM (UACC-257): 99.8%
CCOc1cc2c(c(OC)c1OCC)C(=O)NC1C2CC(O)C(O)C1O (racemic) | 102 | 95.8 | 95.6 | 97.7 | 96.9 | 99.1 | 111 | 102 | 102 | 96.3 | 100 | 96.1 | 103 | 105 | 99.3 | 96.9 | 105 | 95.8 | 97.3 | 99.8 | viability at 10 µM (NCI-H522): 93.3%; viability at 10 µM (EKVX): 99.1%; viability at 10 µM (786-0): 96.1%; viability at 10 µM (SF-295): 102%; viability at 10 µM (OVCAR-5): 109%; viability at 10 µM (ACHN): 104%; viability at 10 µM (Hs-578T): 99.8%; viability at 10 µM (SK-MEL-2): 110%; viability at 10 µM (SW-620): 109%; viability at 10 µM (K562): 98.3%; viability at 10 µM (SN12C): 104%; viability at 10 µM (NCI-H322M): 106%; viability at 10 µM (UACC-257): 98.2%
CCOc1cc2c(c(OCC)c1OCC)C(=O)NC1C2CC(O)C(O)C1O (racemic) | 97 | 96.2 | 101 | 104 | 99.1 | 96.3 | 112 | 102 | 109 | 100 | 98.5 | 88.4 | 105 | 110 | 99.2 | 89.4 | 108 | 101 | 101 | 102 | viability at 10 µM (NCI-H522): 89.2%; viability at 10 µM (EKVX): 97.3%; viability at 10 µM (786-0): 97.9%; viability at 10 µM (SF-295): 100%; viability at 10 µM (OVCAR-5): 104%; viability at 10 µM (ACHN): 105%; viability at 10 µM (Hs-578T): 99.1%; viability at 10 µM (SK-MEL-2): 99.2%; viability at 10 µM (SW-620): 107%; viability at 10 µM (K562): 98.4%; viability at 10 µM (SN12C): 108%; viability at 10 µM (NCI-H322M): 97.8%; viability at 10 µM (UACC-257): 101%
